Measured values taken from the NIST ThermoML archive (doi:10.1016/j.fluid.2007.12.007).
± gives the expanded uncertainty stated by the source.

Conditions: 101.33 kPa, Liquid

SMILES | speed of sound (293.15 K) | viscosity (293.15 K) | speed of sound (298.15 K) | viscosity (298.15 K) | speed of sound (303.15 K) | viscosity (303.15 K) | speed of sound (308.15 K) | viscosity (308.15 K) | speed of sound (313.15 K) | viscosity (313.15 K) | speed of sound (318.15 K) | viscosity (318.15 K)
CCC(C)O (centres undefined) [butan-2-ol] | 1232.6 ± 2.8 m/s | 4.212 ± 0.43 mPa·s | 1212.6 ± 2.7 m/s | 3.034 ± 0.094 mPa·s | 1194.6 ± 2.7 m/s | 2.495 ± 0.076 mPa·s | 1174.5 ± 2.7 m/s | 2.106 ± 0.064 mPa·s | 1155.9 ± 2.6 m/s | 1.784 ± 0.055 mPa·s | 1138.6 ± 2.6 m/s | 1.524 ± 0.048 mPa·s
OCCCCO [1,4-butanediol] | 1616.4 ± 3.4 m/s | 97.26 ± 4.5 mPa·s | 1605.6 ± 3.4 m/s | 72.75 ± 1.9 mPa·s | 1595.9 ± 3.3 m/s | 56.89 ± 0.56 mPa·s | 1587.3 ± 3.3 m/s | 44.88 ± 0.75 mPa·s | 1579.8 ± 3.3 m/s | 35.81 ± 0.6 mPa·s | 1570.2 ± 3.3 m/s | 29.05 ± 0.5 mPa·s
